Columns and labels:
[1] = test system: asexual blood stage of Pf; assay: Pf asexual blood stage potency (Pf IC50); assay type: cell-based, Plasmodium falciparum; details: Plasmodium falciparum
Source text: The TAPs series emerged from a high-throughput screen (HTS) of 500,000 compounds from the AstraZeneca corporate library against the asexual blood stage of Pf using a high-content image-based approach. The procedure for synthesis of compounds 1-6, 10, 11 using a scheme similar to Fig. 1 is provided in Supplementary Note 1. The initial hit provided multiple diversification points for a robust lead optimization campaign. […] Compounds with 2-pyridyl modification at the 2-amino position of pyrimidine core improved potency and solubility at the cost of potent activity against hERG and acetylcholine esterase (AChE; compounds 3-6; Table 1). […] The observed hERG and AChE selectivity improvement with 7 could be attributed to the polar nature of the pyrazole group and its role in reducing the pKa of the core pyrimidine ring. […] To assess the potential for cross-resistance, representative TAPs were screened against a panel of clinical isolates and in vitro-generated mutant strains displaying varying mechanisms of resistance to antimalarial agents currently in use and under development, respectively, (Supplementary Tables 1–3).

hERG = molecular target: T1, hERG (Homo sapiens, UniProt Q12809); assay: electrophysiology-based hERG assay using IonWorks HT (CHO cells); assay type: cell-based; details: hERG IC50
T1 construct: expressed in transfected cells; host or cells: CHO cells
Procedure: hERG IC50 was determined in an electrophysiology-based hERG assay using IonWorks HT (CHO cells) as described earlier.

[2] = molecular target: T2, acetylcholine esterase (AChE) (Homo sapiens, UniProt P22303); assay: AChE enzyme activity assay (CEREP); assay type: biochemical; details: read-out: AChE IC50
T2 construct: purchased CEREP, France (external assay service) 0363
Procedure: (§1) An in vitro pharmacological profiling panel was specifically designed for the detection of potential high- risk clinical adverse drug reactions. The panel comprised of 26 diverse targets (6 enzymes, 2 transporters, 9 G-protein-coupled receptors (GPCRs), 5 ion channels along with hERG, M2, alpha1A and AchE) and was conduced externally by CEREP, France […]. […] Detailed methodology for in vitro pharmacological profiling assays provided by CEREP can be found at http://www.cerep.fr, with specific reference to the AChE (cat. no. 0363), Muscarinic M1 receptor (cat. no. 0091) and Adrenergic α1A receptor (cat. no. 2338) assays. For enzyme and kinase assays, the results were expressed as a percent inhibition of control-specific activity obtained in the presence of the test compound. The IC50 values (concentration causing a half-maximal inhibition of control-specific activity) and Hill coefficients (nH) were determined by nonlinear regression analysis of the inhibition/concentration–response curves using Hill equation curve fitting as described earlier.

Muscarinic M2 receptor = molecular target: T3, Muscarinic M2 receptor (Homo sapiens, UniProt P08172); assay: Muscarinic M2 receptor radioligand binding (CEREP)
T3 construct: purchased CEREP, France (external assay service)
T3 sequence (P08172 1-466): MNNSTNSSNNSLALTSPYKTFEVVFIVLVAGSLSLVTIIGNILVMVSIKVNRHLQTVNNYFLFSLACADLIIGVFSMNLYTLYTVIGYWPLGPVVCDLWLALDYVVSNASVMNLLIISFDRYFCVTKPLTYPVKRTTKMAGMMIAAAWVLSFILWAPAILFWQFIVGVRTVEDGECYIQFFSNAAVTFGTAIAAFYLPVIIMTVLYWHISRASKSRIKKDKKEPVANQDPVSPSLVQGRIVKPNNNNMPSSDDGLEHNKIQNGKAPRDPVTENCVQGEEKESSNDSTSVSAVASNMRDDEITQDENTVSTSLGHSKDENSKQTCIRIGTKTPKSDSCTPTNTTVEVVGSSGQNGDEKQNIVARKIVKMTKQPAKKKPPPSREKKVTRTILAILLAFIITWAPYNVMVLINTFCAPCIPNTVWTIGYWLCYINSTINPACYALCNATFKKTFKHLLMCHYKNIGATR
Procedure: as §1
(§2) For radioligand binding assays, the results are expressed as % inhibition of control-specific binding obtained in the presence of the test compounds. The IC50 values (concentration causing a half-maximal inhibition of control-specific binding) and Hill coefficients (nH) were determined by nonlinear regression analysis of the competition curves generated with mean replicate values using Hill equation curve fitting. The inhibition constants (Ki) were subsequently calculated by applying the Cheng Prusoff equation[38].

α1A adrenoceptor = molecular target: T4, α1A adrenoceptor (Homo sapiens, UniProt P35348); assay: α1A adrenoceptor radioligand binding (CEREP)
T4 construct: purchased CEREP, France (external assay service) 2338
T4 sequence (P35348 1-466): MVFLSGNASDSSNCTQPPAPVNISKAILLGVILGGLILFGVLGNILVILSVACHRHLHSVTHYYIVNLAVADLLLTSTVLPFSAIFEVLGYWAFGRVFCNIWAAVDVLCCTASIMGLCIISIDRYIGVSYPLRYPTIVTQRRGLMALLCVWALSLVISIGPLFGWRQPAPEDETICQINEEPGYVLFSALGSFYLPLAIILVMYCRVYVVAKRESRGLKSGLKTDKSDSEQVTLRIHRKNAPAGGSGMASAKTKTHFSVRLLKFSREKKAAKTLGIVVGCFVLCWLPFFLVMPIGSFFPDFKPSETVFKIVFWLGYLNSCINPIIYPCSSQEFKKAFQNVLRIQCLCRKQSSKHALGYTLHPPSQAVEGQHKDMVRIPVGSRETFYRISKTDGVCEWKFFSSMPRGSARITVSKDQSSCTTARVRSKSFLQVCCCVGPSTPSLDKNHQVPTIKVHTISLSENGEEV
Procedure: as §1, §2

[3] = Rat blood PK, IV and oral; assay type: in vivo; details: Wistar, rat, whole blood, oral, 10 mg/kg, rat; read-out: Rat F (bioavailability)
Procedure: Blood samples were collected at 0.083, 0.25, 0.5, 1, 2, 4, 8, 23, 32, 48, 55 and 72 hours after an IV dose of 2 mg/kg or an oral dose of 10 mg/kg. Oral administration was done using oral gavage at a maximum dose volume of 10 mL/kg. Solution formulation containing 10% NMP, 20% DMA in dextrose / normal saline was used for IV administration and a suspension in 0.5% w/v HPMC with 0.1% v/v Tween 80 was used for oral administration. 25 µl of blood samples were mixed with 100 µL of Milli-Q water and vortexed for 5 minutes in the plate shaker at a speed of 900 rpm to ensure complete hemolysis. Proteins were precipitated by adding 125 µL of cold acetonotrile containing internal standard. After extraction on a plate shaker for 10 minutes at 900 rpm, the plate was centrifuged at 4000 rpm for 20 minutes. The supernatant (180 µL) was transferred to another plate and 2.5 µL of Zinc sulphate (200 mM) was added to separate the heme fraction. This mixture was centrifuged and 10 µL of the supernatant was analyzed by LC-MS/MS. […]

Pf 7G8 = assay: microbe, parasite or virus in culture; assay type: cell-based; details: Plasmodium falciparum
Source text: (§3) tested in duplicate from two independent experiments using a SYBR-Green based assay2.
(§4) (1 picture or pasted object on this page, not shown here)

Pf DD2 = assay: microbe, parasite or virus in culture; assay type: cell-based; details: Plasmodium falciparum
Source text: as §3, §4

Pf K1 = assay: microbe, parasite or virus in culture; assay type: cell-based; details: Plasmodium falciparum
Source text: as §3, §4

Pf NF54 = assay: microbe, parasite or virus in culture; assay type: cell-based; details: Plasmodium falciparum
Source text: as §3, §4

Pf SB1 = assay: microbe, parasite or virus in culture; assay type: cell-based; details: Plasmodium falciparum
Source text: as §3, §4

Pf W2 = assay: microbe, parasite or virus in culture; assay type: cell-based; details: Plasmodium falciparum
Source text: as §3, §4

Caco2 permeability = details: human, Caco-2

T2 sequence (P22303 32-614): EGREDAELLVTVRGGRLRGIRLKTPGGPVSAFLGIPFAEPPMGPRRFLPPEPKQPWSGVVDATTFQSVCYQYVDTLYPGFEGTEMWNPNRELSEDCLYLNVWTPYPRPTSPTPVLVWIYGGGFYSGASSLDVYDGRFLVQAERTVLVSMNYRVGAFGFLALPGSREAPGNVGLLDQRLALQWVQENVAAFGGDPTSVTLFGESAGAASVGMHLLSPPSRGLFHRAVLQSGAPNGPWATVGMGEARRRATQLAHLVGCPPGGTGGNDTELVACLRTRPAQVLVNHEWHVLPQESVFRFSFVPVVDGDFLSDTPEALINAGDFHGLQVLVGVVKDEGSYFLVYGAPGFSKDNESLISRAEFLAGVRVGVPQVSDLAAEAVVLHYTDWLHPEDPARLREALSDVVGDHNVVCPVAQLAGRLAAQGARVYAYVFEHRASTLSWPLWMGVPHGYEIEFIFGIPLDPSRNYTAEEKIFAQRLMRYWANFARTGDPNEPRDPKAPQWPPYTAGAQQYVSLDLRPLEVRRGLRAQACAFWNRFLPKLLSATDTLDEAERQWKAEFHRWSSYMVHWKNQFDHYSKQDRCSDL
T1 sequence (Q12809 whole entry): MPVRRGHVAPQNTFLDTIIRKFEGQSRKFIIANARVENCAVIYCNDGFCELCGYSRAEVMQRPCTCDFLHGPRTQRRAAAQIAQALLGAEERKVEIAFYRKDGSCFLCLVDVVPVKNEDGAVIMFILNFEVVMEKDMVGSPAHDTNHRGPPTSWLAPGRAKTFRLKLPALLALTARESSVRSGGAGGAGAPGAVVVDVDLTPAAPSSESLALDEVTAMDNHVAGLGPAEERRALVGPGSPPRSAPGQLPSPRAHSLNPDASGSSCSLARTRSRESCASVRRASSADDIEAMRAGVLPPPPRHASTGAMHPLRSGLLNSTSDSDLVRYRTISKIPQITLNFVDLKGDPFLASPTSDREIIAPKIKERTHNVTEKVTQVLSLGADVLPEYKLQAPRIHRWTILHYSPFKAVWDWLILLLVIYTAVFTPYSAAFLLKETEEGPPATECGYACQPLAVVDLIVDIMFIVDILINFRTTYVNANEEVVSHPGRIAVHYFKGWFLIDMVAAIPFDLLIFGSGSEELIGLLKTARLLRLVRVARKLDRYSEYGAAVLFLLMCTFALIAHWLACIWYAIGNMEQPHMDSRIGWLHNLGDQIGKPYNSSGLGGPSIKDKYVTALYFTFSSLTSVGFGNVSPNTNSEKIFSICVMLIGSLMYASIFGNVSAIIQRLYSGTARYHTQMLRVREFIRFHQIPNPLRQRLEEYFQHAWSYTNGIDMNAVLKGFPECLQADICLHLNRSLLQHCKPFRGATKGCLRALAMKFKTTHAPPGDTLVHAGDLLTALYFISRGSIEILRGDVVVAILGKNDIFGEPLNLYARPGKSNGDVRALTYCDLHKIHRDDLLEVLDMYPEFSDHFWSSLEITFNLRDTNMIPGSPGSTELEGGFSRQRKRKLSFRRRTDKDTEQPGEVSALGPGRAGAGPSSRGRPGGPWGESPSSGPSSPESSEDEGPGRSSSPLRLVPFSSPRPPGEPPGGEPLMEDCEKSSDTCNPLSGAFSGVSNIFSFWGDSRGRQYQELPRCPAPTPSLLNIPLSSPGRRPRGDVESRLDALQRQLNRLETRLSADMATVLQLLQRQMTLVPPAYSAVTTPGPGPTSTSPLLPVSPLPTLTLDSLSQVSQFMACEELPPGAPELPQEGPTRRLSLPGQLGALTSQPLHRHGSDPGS

## CCc1cc(Nc2ncc(N3CCN[C@H](C)C3)c(Nc3cc(C)n(C)n3)n2)nc(C)c1F.Cl.Cl [compound 8, (R)-N4-(1,5-dimethyl-1H-pyrazol-3-yl)-N2-(4-ethyl-5-fluoro-6-methylpyridin-2-yl)-5-(3-methylpiperazin-1-yl)pyrimidine-2,4-diamine dihydrochloride]
[1]
  IC50: 25 nM
hERG
  IC50: > 30000 nM
[2]
  IC50: 30000 nM
Muscarinic M2 receptor
  IC50: 3100 nM
α1A adrenoceptor
  IC50: 1300 nM
[3]
  bioavailability: 31%
Pf 7G8
  IC50: 74.4 ± 17 nM
Pf DD2
  IC50: 38.3 ± 1.5 nM
Pf K1
  IC50: 64.7 ± 12 nM
Pf NF54
  IC50: 57.2 ± 20 nM
Pf SB1
  IC50: 34.7 ± 3 nM
Pf W2
  IC50: 78.8 ± 7 nM
Caco2 permeability
  Papp A→B: 4 ×10⁻⁶ cm/s

From publication PMC4389225, “Triaminopyrimidine is a fast-killing and long-acting antimalarial clinical candidate” (Nature Communications, 2015)
